Tests used:
[1] = test system: endogenous JNK in HepG2 cells; assay: AlphaScreen kinase assay of endogenous IL-1-induced JNK activity; assay type: cell-based; details: IL-1-dependent JNK activity, Fig. 3d
[2] = test system: Varicella Zoster Virus (VZV); assay: Plaque reduction assay against VZV in HFFs; assay type: cell-based; details: for VZV spread (pfu) ± SD: 24 h
porcine islets = assay: Porcine islet isolation; assay type: cell-based, pig
Brown Norway rats [3] = assay: Argon laser-induced choroidal neovascularization (ChNV), intravitreal; assay type: in vivo, rat
rats = assay: Adriamycin-induced nephropathy; assay type: in vivo, rat
rat pancreatic islets = assay: Rat islet isolation after warm ischemia; assay type: cell-based
human islets = assay: Human islets, 24 h hypoxia; assay type: cell-based; details: 100 μM
Wistar rats = assay: Ligature-induced periodontitis; assay type: in vivo, rat; details: day 17
Brown Norway rats [4] = assay: STZ diabetic retinopathy prevention, intravitreal, ERG; assay type: in vivo, rat

## NH2-DQSRPVQPFLNLTTPRKPRPPRRRQRRKKRG-COOH (H-DQSRPVQPFLNLTTPRKPRPPRRRQRRKKRG-OH; also: D-amino acids (positions not given here)) [XG-102]
[1]
  inhibition of JNK activity compared with L-JNKI: 보다 효과적으로 JNK 활성을 억제한다
[2]; 0.5 μM
  VZV spread (pfu) ± SD: 260 ± 53 pfu
[2]; 1.0 μM
  VZV spread (pfu) ± SD: 212 ± 48 pfu
[2]; 2.0 μM
  VZV spread (pfu) ± SD: 312 ± 79 pfu
[2]; interpolated from graph, read-out: EC50 (50% reduction of VZV yield)
  EC50: ~300 nM
Porcine islets
  isolations with OCR/DNA above cut-off, successfully transplanted into NHPs: 6/6
Porcine islets; 10 μM
  relative c-fos gene expression: 감소시키고
Porcine islets; 10 μM in pancreas and isolation solutions
  JNK activation during isolation: 차단하고
Porcine islets; 10 μM vs paired untreated control
  viability of freshly isolated islets (OCR/DNA, ATP/protein): 통계적으로 현저하고 중요한 영향을 가짐
Brown Norway rats [3]; 300 μg/ml IVT D0,D7, day 14
  mean score of fluorescein leakage (mean ± SD): 2.4 ± 0.9
Brown Norway rats [3]; 300 μg/ml IVT D0,D7, day 21
  mean score of fluorescein leakage (mean ± SD): 2.4 ± 0.8
Brown Norway rats [3]; 300 μg/ml, day 14
  % spots with score 0: 7%
  % spots with score 1: 9%
  % spots with score 2: 18%
  % spots with score 3: 66%
Brown Norway rats [3]; 300 μg/ml, day 14, p<0.05
  reduction % vs vehicle: 17%
Brown Norway rats [3]; 300 μg/ml, day 21
  % spots with score 0: 5%
  % spots with score 1: 9%
  % spots with score 2: 32%
  % spots with score 3: 55%
  reduction % vs vehicle: -9%
Brown Norway rats [3]; 3000 μg/ml IVT D0,D7, day 14
  mean score of fluorescein leakage (mean ± SD): 1.7 ± 0.7
Brown Norway rats [3]; 3000 μg/ml IVT D0,D7, day 21
  mean score of fluorescein leakage (mean ± SD): 2.3 ± 0.7
Brown Norway rats [3]; 3000 μg/ml, day 14
  % spots with score 0: 0%
  % spots with score 1: 44%
  % spots with score 2: 44%
  % spots with score 3: 12%
Brown Norway rats [3]; 3000 μg/ml, day 14, p<0.001
  reduction % vs vehicle: 41%
Brown Norway rats [3]; 3000 μg/ml, day 21
  % spots with score 0: 0%
  % spots with score 1: 14%
  % spots with score 2: 47%
  % spots with score 3: 40%
  reduction % vs vehicle: -5%
Brown Norway rats [3]; both doses IVT
  general behaviour of animals: 변화되지 않는다
rats; 2 mg/kg i.v. day 0
  development of glomerular and tubulointerstitial fibrosis: 발생을 예방하고
rats; 20, 200, 2000 μg/kg i.v., days 8-41
  effect on adriamycin-induced nephropathy (histology): 현저하게 긍정적인 효과를 갖는다
rats; ADR 10 mg/kg + XG-102 2 mg/kg i.v. day 0, up to day 56
  serum urea level throughout the disease course: ≤ 10 mmol/L
rats; albumin ELISA, Fig. 41
  adverse effect on proteinuria: 어떠한 역효과도 유발하지 않는
rats; days 8 and 14, Fig. 46-47
  c-jun expression in the interstitium: 현저한 감소를 초래
Rat pancreatic islets; 15-min ischemia
  islet function (static insulin secretion) after 18 h culture: 섬 기능에 영향을 미치지 않았다
Rat pancreatic islets; 30-min ischemia, 100 μM
  glucose-induced insulin secretion vs ischemic rats: 더 높았으며
  islet apoptosis and necrosis: 세포 자멸 및 괴사를 감소시키는
Rat pancreatic islets; Western blot, Fig. 56
  JNK and PAF2 phosphorylation induced by 15-min ischemia: 투여량 의존적으로 감소되는
Human islets
  hypoxia-induced islet apoptosis: 세포 자멸을 감소시키는
Human islets; normoxia and hypoxia
  islet necrosis: 괴사를 감소시키는
Wistar rats
  alveolar bone height loss (ABHL): 골 파괴가 덜 심함
Wistar rats; gingival tissue ELISA
  IL1-β expression vs placebo: 현저하게 감소되었다
Wistar rats; single intragingival dose day 10
  gingival inflammation (GI) level: GI 수준을 강하게 감소시켰다
Brown Norway rats [4]; 0.2 μg/eye IVT d1,8,15, day 6
  OP#1 scotopic single flash 0dB amplitude: 49 μV
Brown Norway rats [4]; 0.2 μg/eye, day 6
  OP#2 scotopic single flash 0dB amplitude: 98 μV
  OP#3 scotopic single flash 0dB amplitude: 219 μV
  OP#4 scotopic single flash 0dB amplitude: 147 μV
  photopic 1Hz flicker A-wave amplitude: -3 μV
  photopic 1Hz flicker B-wave amplitude: 63 μV
  photopic 29Hz flicker B-wave amplitude: 9 μV
  scotopic single flash 0dB A-wave amplitude: -209 μV
  scotopic single flash 0dB B-wave amplitude: 421 μV
  scotopic single flash -10dB A-wave amplitude: -151 μV
  scotopic single flash -30dB B-wave amplitude: 269 μV
Brown Norway rats [4]; 0.2 μg/eye, day 13
  OP#1 scotopic single flash 0dB amplitude: 37 μV
  OP#2 scotopic single flash 0dB amplitude: 63 μV
  OP#3 scotopic single flash 0dB amplitude: 165 μV
  OP#4 scotopic single flash 0dB amplitude: 129 μV
  photopic 1Hz flicker A-wave amplitude: -4 μV
  photopic 1Hz flicker B-wave amplitude: 71 μV

Source: patent KR20170021349A, “다양한 질병의 치료를 위한 jnk 신호 전달 경로의 세포 투과성 펩타이드 억제자의 새로운 용도” (자이겐 인플라메이션 리미티드, priority 2014, dated 2017)
